The record followed here is US11446298B2, “Pyrimidine derivatives” (Idorsia Pharmaceuticals Ltd, priority 2017, dated 2022).

SMILES strings stand for the structures. pIC50: −log10 of the molar value.

What all share (format): cell-based
One test has as its target T1, PTGER2 (EP2) (Homo sapiens, UniProt P43116).
T1 construct: host or cells: HEK 293 (PathHunter, stably transfected)
The test is described as follows: hEP2 b-Arrestin Assay (PathHunter HEK 293 PTGER2 b-arrestin cells, PGE2 5 μM). The settings on record: antagonistic activity, beta-arrestin assay, HEK 293 PTGER2 cells, PGE2 5 μM (EC80); read-out: hEP2 b-arr IC50. The method, then:
The antagonistic activities of the compounds of formula (I) on the EP2 and EP4 receptors are also determined in accordance with the following experimental method.
The assay is using the PathHunter™ HEK 293 PTGER2 and PTGER4 b-arrestin cell lines from DiscoverX. The system is based on the Enzyme Fragment Complementation Technology. Two complementing fragments of the b-galactosidase enzyme are expressed within stably transfected cells. The larger portion of b-gal, termed EA for Enzyme Acceptor, is fused to the C-terminus of b-arrestin 2. The smaller fragment, termed ProLink™ tag, is fused to PTGER2 (EP2) or PTRGER4 (EP4) at the C-terminus. Upon activation, b-arrestin is recruited which forces the interaction of ProLink and EA, allowing complementation of the two fragments of b-gal and the formation of a functional enzyme which is capable of hydrolysing the substrate and generating a chemiluminescent signal.
The HEK 293 PTGER2 b-arrestin cells (DiscoverX 93-021-4C1) are detached from culture dishes with a cell dissociation buffer (Invitrogen, 13151-014), and collected in growing medium (GM: DMEM+Glutamax-I (Invitrogen 32430)/10% FCS, 1% Penicilin/streptomycin). 5000 cells per well of a 384 well plate (white with white bottom Greiner 781080) are seeded in 20 μl per well of GM. Plate is incubated at 37° C., 5% CO2 for 24 hours.
Stock solutions of test compounds are made at a concentration of 10 mM in DMSO, and serially diluted in DMSO to concentrations required for inhibition dose response curves (tested concentration range 10 μM-2 nM or 1 μM-0.2 nM).
PGE2 (Cayman 14010, stock solution: 10 mM in DMSO) is used as agonist at 5 μM final concentration, corresponding to EC80.
Five microliters of diluted compounds are transferred into the assay plate. Plate is pre-incubated 15 minutes at 37° C. Then five microliters of PGE2 (final conc. 5 μM) are transferred into the assay plate. Plate is incubated 120 minutes at 37° C.
PathHunter Glo Detection Kit components are thawed and mix according to manufacturer's instructions: 1 part Galacton Star Substrate with 5 parts Emerald II™ Solution, and 19 parts of PathHunter Cell Assay Buffer, respectively. Twelve μl of reagent are transferred to the assay plate and incubate for 1 hour at room temperature in the dark. Luminescence counts are read on a BMG Fluostar Optima reader according to manufacturer's instructions.
For each compound concentration calculate of the percentage of activity compared to DMSO control value as average ±STDEV. (each concentration is measured in duplicate)
IC50 values and curves are generated with XLfit software (IDBS) using Dose-Response One Site model 203. When compounds were measured multiple times, mean values are given.

Another test deals with T2, EP4 (Homo sapiens, UniProt P35408).
T2 construct: BT549 breast cancer cells, express high endogenous EP4 levels and very low EP2 levels; host or cells: BT549 breast cancer cells
T2 sequence (P35408 whole entry): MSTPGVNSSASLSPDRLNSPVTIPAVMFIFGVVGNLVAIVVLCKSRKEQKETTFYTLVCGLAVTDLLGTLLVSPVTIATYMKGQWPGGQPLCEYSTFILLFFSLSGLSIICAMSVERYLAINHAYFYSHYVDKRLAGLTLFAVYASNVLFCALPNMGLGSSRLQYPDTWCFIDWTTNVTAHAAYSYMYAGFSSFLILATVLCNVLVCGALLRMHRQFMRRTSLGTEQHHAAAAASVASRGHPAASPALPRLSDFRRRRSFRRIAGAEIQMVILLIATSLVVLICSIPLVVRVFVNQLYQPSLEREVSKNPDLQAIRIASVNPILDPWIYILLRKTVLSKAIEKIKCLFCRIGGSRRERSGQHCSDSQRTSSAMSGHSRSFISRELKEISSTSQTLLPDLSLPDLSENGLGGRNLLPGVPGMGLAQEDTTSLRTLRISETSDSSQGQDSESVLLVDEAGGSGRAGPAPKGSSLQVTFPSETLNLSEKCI
The test is described as follows: hEP4 cAMP Assay (BT549 breast cancer cells, HTRF cAMP, PGE2 6 nM). To be noted: antagonistic activity, PGE2 6 nM (EC80). The method, boiled down:
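Antagonism is measured as inhibition of PGE2 (6 nM final, EC80) cAMP accumulation in EP4-expressing BT549 breast cancer cells, after a 45 min room-temperature compound pre-incubation and 30 min agonist step, with 2 mM IBMX present. HTRF ratio gives cAMP relative to DMSO; IC50 fitted, means over repeat runs.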
For orientation: In TR-FRET formats the signal depends on donor and acceptor labels being close together.

The target of another test is T3, EP2 (Homo sapiens, UniProt P43116).
T3 construct: SF295 glioblastoma cells express high endogenous EP2 and no EP4; host or cells: SF295 glioblastoma cells
T3 sequence (P43116 whole entry): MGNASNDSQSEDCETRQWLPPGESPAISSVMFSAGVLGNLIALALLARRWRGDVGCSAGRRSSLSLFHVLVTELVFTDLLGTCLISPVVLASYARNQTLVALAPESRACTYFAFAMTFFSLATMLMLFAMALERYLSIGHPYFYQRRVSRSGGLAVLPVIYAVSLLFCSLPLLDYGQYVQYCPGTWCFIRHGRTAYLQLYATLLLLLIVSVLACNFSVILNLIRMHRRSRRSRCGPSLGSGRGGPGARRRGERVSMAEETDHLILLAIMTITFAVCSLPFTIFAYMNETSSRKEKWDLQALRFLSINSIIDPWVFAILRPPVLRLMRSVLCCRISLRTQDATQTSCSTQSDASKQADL
Nature of the test: hEP2 cAMP Assay (SF295 glioblastoma cells, HTRF cAMP, PGE2 75 nM). To be noted: antagonistic activity, PGE2 75 nM (EC80). The method, boiled down:
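IC50 values derive from duplicate-point curves of percent cAMP relative to DMSO, read by HTRF (665/620 nm) against a cAMP calibrator. Compounds (30 μM to 0.01 nM ranges) were given 45 min at room temperature before 30 min with 75 nM PGE2, in EP2-only SF295 cells with 2 mM IBMX.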

T1 sequence (P43116 whole entry): as above

A word on the pIC50: it is the negative decadic logarithm of the IC50, by convention in mol/L. With `COc1ccc2ncccc2c1CCNc1cc(-c2ccc(-c3c(O)c(=O)c3=O)cc2)ncn1` [Example 91, 3-Hydroxy-4-(4-{6-[2-(6-methoxy-quinolin-5-yl)-ethylamino]-pyrimidin-4-yl}-phenyl)-cyclobut-3-ene-1,2-dione], the figures for the negative logarithm of the IC50 (pIC50) on PTGER2 (EP2), against EP4 and against EP2 were 6.84, 6.09 and 6.64, respectively.

For the compound `CCOc1cc(-c2cc(NCCc3c(F)ccc4ccccc34)ncn2)ccc1C(=O)O` [Example 93, 2-Ethoxy-4-{6-[2-(2-fluoro-naphthalen-1-yl)-ethylamino]-pyrimidin-4-yl}-benzoic acid], the negative-log IC50 (pIC50) on PTGER2 (EP2) was 7.44; against EP4 it was 6.37; at EP2, 7.44.

For the compound `O=C(O)c1ccc(-c2cc(NCCc3c(F)ccc4ccccc34)ncn2)cc1OC1CCC1` [Example 94, 2-Cyclobutoxy-4-{6-[2-(2-fluoro-naphthalen-1-yl)-ethylamino]-pyrimidin-4-yl}-benzoic acid], the pIC50 on PTGER2 (EP2) was 7.47; against EP4, 6.43; against EP2, 7.28.

As for `CCOc1cc(-c2cc(NCCc3c(F)ccc4ccccc34)ncn2)ccc1OCC(=O)O` [Example 96, (2-Ethoxy-4-{6-[2-(2-fluoro-naphthalen-1-yl)-ethylamino]-pyrimidin-4-yl}-phenoxy)-acetic acid], the results for the negative-log IC50 (pIC50) on PTGER2 (EP2), against EP4 and against EP2 were 7.18, 6.37 and 6.74, respectively.

In the case of `CCOc1cc(-c2cc(NCCc3c(F)ccc4ccccc34)ncn2)ccc1CC(=O)O` [Example 97, (2-Ethoxy-4-{6-[2-(2-fluoro-naphthalen-1-yl)-ethylamino]-pyrimidin-4-yl}-phenyl)-acetic acid], the negative-log IC50 (pIC50) is 6.88 on PTGER2 (EP2), 6.45 at EP4 and 6.66 against EP2.

Turning to `CCOc1cc(-c2cc(NCCc3cccc4ccsc34)ncn2)ccc1C(=O)O` [Example 101, 4-[6-(2-Benzo[b]thiophen-7-yl-ethylamino)-pyrimidin-4-yl]-2-ethoxy-benzoic acid], the values for the pIC50 at PTGER2 (EP2), against EP4 and at EP2 were 6.89, 6.21 and 6.89, respectively.

As for `O=C(O)c1ccc(-c2cc(NCCc3cccc4ccsc34)ncn2)cc1OC1CCC1` [Example 102, 4-[6-(2-Benzo[b]thiophen-7-yl-ethylamino)-pyrimidin-4-yl]-2-cyclobutoxy-benzoic acid], the results for the pIC50 on PTGER2 (EP2), against EP4 and on EP2 were 6.84, 6.58 and 6.65, respectively.

Turning to `O=C(O)c1ccc(-c2cc(NCCc3cccc4sccc34)ncn2)cc1OC1CCC1` [Example 107, 4-[6-(2-Benzo[b]thiophen-4-yl-ethylamino)-pyrimidin-4-yl]-2-cyclobutoxy-benzoic acid], the negative logarithm of the IC50 (pIC50) at PTGER2 (EP2) is 6.83; against EP4, 6.57; on EP2, 6.60.

As for `CCOc1cc(-c2cc(NCCc3c(C)ccc4c3cnn4C)ncn2)ccc1O` [Example 111, 4-{6-[2-(1,5-Dimethyl-1H-indazol-4-yl)-ethylamino]-pyrimidin-4-yl}-2-ethoxy-phenol], the negative-log IC50 (pIC50) was 7.30 on PTGER2 (EP2), 6.07 on EP4 and 6.77 against EP2.

Consider `COc1ccc2ncccc2c1CCNc1cc(-c2ccnc(N3CCCCC3)c2)ncn1` [Example 112, [2-(6-Methoxy-quinolin-5-yl)-ethyl]-[6-(3,4,5,6-tetrahydro-2H-[1,2′]bipyridinyl-4′-yl)-pyrimidin-4-yl]amine], for which the results for the pIC50 on PTGER2 (EP2), at EP4 and against EP2 were 6.72, 6.16 and 6.68, respectively.

For the compound `COc1ccc2ncccc2c1CCNc1cc(-c2ccc(-c3nnc(N)s3)cc2)ncn1` [Example 113, {6-[4-(5-Amino-[1,3,4]thiadiazol-2-yl)-phenyl]-pyrimidin-4-yl}-[2-(6-methoxy-quiolin-5-yl)-ethyl]-amine], the pIC50 was 7.33 on PTGER2 (EP2), 6.34 against EP4 and 7.57 against EP2.

`Cc1ccc2c(cnn2C)c1CCNc1cc(-c2ccc3ncccc3c2)ncn1` [Example 114, [2-(1,5-Dimethyl-1H-indazol-4-yl)-ethyl]-(6-quinolin-6-yl-pyrimidin-4-yl)-amine]: the values for the pIC50 at PTGER2 (EP2), on EP4 and against EP2 were 6.65, 6.31 and 7.46, respectively.

Take `Cc1ccc2c(cnn2C)c1CCNc1cc(-c2ccc3ccncc3c2)ncn1` [Example 115, [2-(1,5-Dimethyl-1H-indazol-4-yl)-ethyl]-(6-isoquinolin-7-yl-pyrimidin-4-yl)-amine]: the figures for the pIC50 at PTGER2 (EP2), at EP4 and at EP2 were 6.61, 6.31 and 7.02, respectively.

For the compound `COc1ccc2ccccc2c1CCNc1cc(-c2ccc(C(=O)O)c(CC(C)C)c2)ncn1` [Example 122, 2-Isobutyl-4-{6-[2-(2-methoxy-naphthalen-1-yl)-ethylamino]-pyrimidin-4-yl}-benzoic acid], the negative logarithm of the IC50 (pIC50) was 7.21 on PTGER2 (EP2), 6.51 against EP4 and 7.39 at EP2.

With `CCCc1cc(-c2cc(NCCc3c(OC)ccc4ccccc34)ncn2)cc(F)c1C(=O)O` [Example 123, 2-Fluoro-4-{6-[2-(2-methoxy-naphthalen-1-yl)-ethylamino]-pyrimidin-4-yl}-6-propyl-benzoic acid], the results for the negative logarithm of the IC50 (pIC50) at PTGER2 (EP2), against EP4 and at EP2 were 7.51, 6.26 and 7.54, respectively.

As for `CCCCOc1cc(-c2cc(NCCc3c(OC)ccc4ccccc34)ncn2)cc(F)c1C(=O)O` [Example 124, 2-Butoxy-6-fluoro-4-{6-[2-(2-methoxy-naphthalen-1-yl)-ethylamino]-pyrimidin-4-yl}-benzoic acid], the negative logarithm of the IC50 (pIC50) on PTGER2 (EP2) is 7.46; against EP4 it was 6.35; at EP2, 7.00.

As for `COc1ccc2ccccc2c1CCNc1cc(-c2cc3ccc(C(=O)O)cc3[nH]2)ncn1` [Example 127, 2-{6-[2-(2-Methoxy-naphthalen-1-yl)-ethylamino]-pyrimidin-4-yl}-1H-indole-6-carboxylic acid], the negative logarithm of the IC50 (pIC50) was 8.05 at PTGER2 (EP2), 6.38 at EP4 and 7.70 at EP2.

Regarding `COc1ccc2ccccc2c1CCNc1cc(-c2cc3c(C(=O)O)cccc3[nH]2)ncn1` [Example 129, 2-{6-[2-(2-Methoxy-naphthalen-1-yl)-ethylamino]-pyrimidin-4-yl}-1H-indole-4-carboxylic acid], the figures for the pIC50 on PTGER2 (EP2), against EP4 and on EP2 were 7.06, 6.54 and 7.82, respectively.

As to `COc1ccc2ccccc2c1CCNc1cc(-c2cc3cc(C(=O)O)ccc3[nH]2)ncn1` [Example 130, 2-{6-[2-(2-Methoxy-naphthalen-1-yl)-ethylamino]-pyrimidin-4-yl}-1H-indole-5-carboxylic acid], the pIC50 at PTGER2 (EP2) is 7.89; on EP4, 6.26; against EP2 it was 7.57.

For `CCOc1cc(-c2cc(NCCc3c(OC)ccc4ccccc34)ncn2)sc1CC(=O)O` [Example 132, (3-Ethoxy-5-{6-[2-(2-methoxy-naphthalen-1-yl)-ethylamino]-pyrimidin-4-yl}-thiophen-2-yl)-acetic acid], the pIC50 at PTGER2 (EP2) is 7.21; against EP4, 6.42; on EP2 it was 7.31.

With `CCOc1cc(-c2cc(NCCc3c(OC)ccc4ncccc34)ncn2)sc1C(=N)NO` [Example 146, 3-Ethoxy-N-hydroxy-5-{6-[2-(6-methoxy-quinolin-5-yl)-ethylamino]-pyrimidin-4-yl}-thiophene-2-carboxamidine], the figures for the pIC50 on PTGER2 (EP2), on EP4 and on EP2 were 7.18, 6.39 and 6.92, respectively.
